Experiments:
[1] = system: WT 39-mer Bcl-2 promoter sequence G-quadruplex (39Bcl-2) (DNA, G4) AGGGGCGGGCGCGGGAGGAAGGGGGCGGGAGCGGGGCTG; experiment: ESI-MS; settings: 50 mM ammonium acetate, 20% methanol, pH about 7, 80 µM DNA, 320 µM porphyrin
[2] = system: WT 39-mer Bcl-2 promoter sequence G-quadruplex (39Bcl-2) (DNA, G4) AGGGGCGGGCGCGGGAGGAAGGGGGCGGGAGCGGGGCTG; experiment: ITC; settings: 130 mM KCl, 20 mM potassium phosphate, 2 mM K4EDTA, pH 7.0, 25 °C

Row | binding ([1]; no free DNA seen) | K1 ([2]; site 1 of 2 (two equivalent sites per mode)) | binding ([1]; some free DNA seen) | K1 ([2]; two equivalent sites) | SMILES
1 | yes | 37.0 ± 4.0 × 10^5 |  |  | C[n+]1ccc(-c2c3nc(c(-c4cc[n+](C)cc4)c4ccc([nH]4)c(-c4cc[n+](C)cc4)c4nc(c(-c5cc[n+](C)cc5)c5ccc2[nH]5)C=C4)C=C3)cc1
2 |  |  | yes | 2.6 ± 0.5 × 10^5 | C[n+]1cccc(-c2c3nc(c(-c4ccc[n+](C)c4)c4ccc([nH]4)c(-c4ccc[n+](C)c4)c4nc(c(-c5ccc[n+](C)c5)c5ccc2[nH]5)C=C4)C=C3)c1
3 |  |  | yes | 0.7 ± 0.5 × 10^5 | C[n+]1ccccc1-c1c2nc(c(-c3cccc[n+]3C)c3ccc([nH]3)c(-c3cccc[n+]3C)c3nc(c(-c4cccc[n+]4C)c4ccc1[nH]4)C=C3)C=C2
